In PubChem BioAssay AID1117325 (Cheminformatics & Chemogenomics Research Group (CCRG), …, 2015):
Values joined by “and” are separate entries in the source; they are usually repeats but may differ in a detail not shown here. Equal entries are not always repeated. Active and inactive are the calls of the source. No rule for the calls is given here. *1 amine or outer side, *2 acyl side, *3 side chain or, on linkers, in order; H or OH if unused. Where a SMILES comes first, the peptide text is derived from it. Bridges are numbered along the chain shown (N, C = ends). Roman numbers before positions name the chains, in order. [ ]: non-standard residue; d: D form. Actinocin(9to1) = Cc1c2oc3c(C)ccc(C(=O)[*:1])c3nc-2c(C(=O)[*:2])c(N)c1=O; NMeV = CN[C@H](C(=O)O)C(C)C; Sar = CNCC(=O)O

What follows are compounds tested on C2C12 WNT3A-conditioned, nuclear beta-catenin (assay: activation of β-catenin in the nucleus of C2C12, concentration-response, cell-based, Wnt-3a CM-treated, half-maximal inhibitory concentration (AID 1117325)).
With CC(=O)Oc1ccc(C2(c3ccc(OC(C)=O)cc3)Oc3ccccc3NC2=O)cc1 the IC50 was > 20000 nM (inactive). For CCCN(CCC)C(=O)C(CCC(=O)OCCCN1CCN(CCOC(=O)Cc2c(C)n(C(=O)c3ccc(Cl)cc3)c3ccc(OC)cc23)CC1)NC(=O)c1ccccc1 (centres undefined), the IC50 was > 20000 nM (inactive). For Clc1cc(Cl)c(OCC#CI)cc1Cl, the IC50 was > 20000 nM (inactive). For O=[N+]([O-])c1ccc(O)c2ncccc12, the IC50 was > 20000 nM (inactive). Cc1ccc([N+](=O)[O-])[c]2c1[O][Hg]2 showed an IC50 of 1510 nM. Compound C=C(C)[C@H]1Cc2c(ccc3c2O[C@@H]2COc4cc(OC)c(OC)cc4[C@@H]2C3=O)O1 has an IC50 of 2990 nM. For Cc1cc(C2CCCCC2)n(O)c(=O)c1, the IC50 was > 20000 nM (inactive). O=C1c2c(O)ccc(O)c2C(=O)c2c(NCCNCCO)ccc(NCCNCCO)c21 gave an IC50 of 30.3 nM. O=C1OC2(c3cc(Br)c(O)cc3Oc3c2cc(Br)c(O)[c]3[Hg])c2ccccc21 (centres undefined) was tested, and the IC50 was 16900 nM (inactive). In the case of Nc1ccc2cc3ccc(N)cc3nc2c1, the IC50 is reported as 5990 nM (inactive). With O=C1C(I)=CC(=C(c2cc(I)c(O)c(I)c2)c2ccccc2C(=O)O)C=C1I the IC50 was > 20000 nM (inactive). In the case of C[C@@]12C(=O)OC(=O)[C@]1(C)C1CCC2O1, the IC50 is reported as > 20000 nM (inactive). Work on CCCSc1ccc2nc(NC(=O)OC)[nH]c2c1 yielded an IC50 of 1280 nM. In the case of CC[C@@H]([C@H](C)O)n1ncn(-c2ccc(N3CCN(c4ccc(OC[C@@H]5CO[C@@](Cn6cncn6)(c6ccc(F)cc6F)C5)cc4)CC3)cc2)c1=O, the IC50 is reported as 5290 nM (inactive). Oc1c(Cl)cc(Cl)cc1Sc1cc(Cl)cc(Cl)c1O was tested, and the IC50 was > 20000 nM (inactive). With [O-][n+]1ccccc1SSc1cccc[n+]1[O-] the IC50 was 991 nM. With COc1cc([C@@H]2c3cc4c(cc3[C@@H](O[C@@H]3O[C@@H]5CO[C@@H](C)O[C@@H]5[C@H](O)[C@@H]3O)[C@H]3COC(=O)[C@H]23)OCO4)cc(OC)c1O the IC50 was > 20000 nM (inactive). Work on COc1cc(NCc2ccc3nc(N)nc(N)c3c2C)cc(OC)c1OC yielded an IC50 of 3.3 nM. For NC(N)=NN=C(/C=C/c1ccc([N+](=O)[O-])o1)/C=C/c1ccc([N+](=O)[O-])o1, the IC50 was > 20000 nM (inactive). With COc1cccc2c1C(=O)c1c(O)c3c(c(O)c1C2=O)C[C@@](O)(C(=O)CO)CC3OC1CC(N2CCOC(OC)C2)C(O)C(C)O1 (some centres undefined) the IC50 was 13.5 nM. Work on Cc1ccc2nc(N)[nH]c(=O)c2c1Sc1ccncc1 yielded an IC50 of 710 nM. For O=[N+]([O-])C(Br)(CO)CO, the IC50 was > 20000 nM (inactive). Compound O=C(Nc1ccc([N+](=O)[O-])cc1Cl)c1cc(Cl)ccc1O has an IC50 of 1570 nM. In the case of OCCN1CCN(CCCN2c3ccccc3Sc3ccc(Cl)cc32)CC1, the IC50 is reported as > 20000 nM (inactive). CCCCC1C(=O)N(c2ccccc2)N(c2ccc(O)cc2)C1=O (centres undefined) was tested, and the IC50 was > 20000 nM (inactive). Work on CCCOc1ccc2nc(NC(=O)OC)[nH]c2c1 yielded an IC50 of 365 nM. CC[C@]1(O)C[C@H]2CN(CCc3c([nH]c4ccccc34)[C@@](C(=O)OC)(c3cc4c(cc3OC)N(C=O)[C@H]3[C@@](O)(C(=O)OC)[C@H](OC(C)=O)[C@]5(CC)C=CCN6CC[C@]43[C@@H]65)C2)C1 showed an IC50 of 4 nM. In the case of CC(C)C[C@H](NC(=O)[C@H](CCc1ccccc1)NC(=O)CN1CCOCC1)C(=O)N[C@@H](Cc1ccccc1)C(=O)N[C@@H](CC(C)C)C(=O)[C@@]1(C)CO1, the IC50 is reported as 29.2 nM. In the case of CCCCCCCCCCCC(=O)[O][Sn]([CH2]CCC)([CH2]CCC)[O]C(=O)CCCCCCCCCCC, the IC50 is reported as > 20000 nM (inactive). With CCCCCCCCCCOCC(O)CN (centres undefined) the IC50 was > 20000 nM (inactive). Cc1c2oc3c(C)ccc(C(=O)N[C@@H]4C(=O)N[C@H](C(C)C)C(=O)N5CCC[C@H]5C(=O)N(C)CC(=O)N(C)[C@@H](C(C)C)C(=O)O[C@@H]4C)c3nc-2c(C(=O)N[C@@H]2C(=O)N[C@H](C(C)C)C(=O)N3CCC[C@H]3C(=O)N(C)CC(=O)N(C)[C@@H](C(C)C)C(=O)O[C@@H]2C)c(N)c1=O (I: T[dV]P[Sar][NMeV] / II: T[dV]P[Sar][NMeV]; ester I:1-I:C, II:1-II:C; linker I:N-II:N via Actinocin(9to1)) showed an IC50 of 37 nM. In the case of CCc1nc(N)nc(N)c1-c1ccc(Cl)cc1, the IC50 is reported as 860 nM. In the case of Oc1c(I)cc(Cl)c2cccnc12, the IC50 is reported as > 20000 nM (inactive). With COc1cccc2c1C(=O)c1c(O)c3c(c(O)c1C2=O)C[C@@](O)(C(=O)CO)C[C@@H]3O[C@H]1C[C@H](N)[C@H](O[C@@H]2CCCCO2)[C@H](C)O1 the IC50 was > 20000 nM (inactive). With Cc1cc(CC(C)CC(C)(C)C)n(O)c(=O)c1 (centres undefined) the IC50 was 591 nM. With CC[C@@]1(O)C(=O)OCc2c1cc1n(c2=O)Cc2c-1nc1ccccc1c2/C=N/OC(C)(C)C the IC50 was 1160 nM. Compound COC(=O)Nc1nc2ccc(Sc3ccccc3)cc2[nH]1 has an IC50 of 4840 nM. Cc1ccccc1C(=O)Nc1ccc(C(=O)N2CCCC(N(C)C)c3ccccc32)cc1 (centres undefined) showed an IC50 of 4560 nM. With CC(=O)[C@]1(O)Cc2c(O)c3c(c(O)c2[C@@H](O[C@H]2C[C@H](N)[C@H](O)[C@H](C)O2)C1)C(=O)c1ccccc1C3=O the IC50 was 100 nM. In the case of NC(=NCCCCCCN=C(N)/N=C(\N)Nc1ccc(Cl)cc1)/N=C(\N)Nc1ccc(Cl)cc1, the IC50 is reported as > 20000 nM (inactive). COc1cc([C@@H]2c3cc4c(cc3[C@H](O)[C@H]3COC(=O)[C@H]23)OCO4)cc(OC)c1OC showed an IC50 of 13.1 nM. For COc1ccc2cc1Oc1ccc(cc1)C[C@H]1c3c(cc4c(c3Oc3cc5c(cc3OC)CCN(C)[C@@H]5C2)OCO4)CCN1C, the IC50 was 5630 nM (inactive). Cc1nc(N)nc(N)c1-c1ccc(Cl)c(Cl)c1 showed an IC50 of 50.4 nM. Work on Cc1cc(O)c2ccccc2c1O yielded an IC50 of 4390 nM. In the case of COc1cccc2c1C(=O)c1c(O)c3c(c(O)c1C2=O)C[C@@](O)(C(C)=O)C[C@@H]3O[C@H]1C[C@H](N)[C@H](O)[C@H](C)O1, the IC50 is reported as 369 nM. COC(=O)Nc1nc2ccc(C(=O)C3CC3)cc2[nH]1 was tested, and the IC50 was 349 nM. For CC(=O)O[C@@]12CO[C@@H]1C[C@H](O)[C@@]1(C)C(=O)[C@H](O)C3=C(C)[C@@H](OC(=O)[C@H](O)[C@@H](NC(=O)OC(C)(C)C)c4ccccc4)C[C@@](O)([C@@H](OC(=O)c4ccccc4)[C@H]21)C3(C)C, the IC50 was 65.2 nM. In the case of C#C[C@]1(O)CC[C@H]2[C@@H]3CCc4cc(OC5CCCC5)ccc4[C@H]3CC[C@@]21C, the IC50 is reported as > 20000 nM (inactive). CCCCCCCCCCCCCC[N+](C)(C)C was tested, and the IC50 was > 20000 nM (inactive). In the case of Cc1nc2ccc(CN(C)c3ccc(C(=O)N[C@@H](CCC(=O)O)C(=O)O)s3)cc2c(=O)[nH]1, the IC50 is reported as 12.7 nM. With CN1C[C@H](CNC(=O)OCc2ccccc2)C[C@@H]2c3cccc4c3c(cn4C)C[C@H]21 the IC50 was > 20000 nM (inactive). In the case of O=c1c(-c2ccccc2)c1-c1ccccc1, the IC50 is reported as > 20000 nM (inactive). In the case of CCCCCCCCCCCCCCC[C@H](O)[C@@H](N)CO, the IC50 is reported as > 20000 nM (inactive). CC[C@@]1(O)C(=O)OCc2c1cc1n(c2=O)Cc2cc3c(CN(C)C)c(O)ccc3nc2-1 showed an IC50 of 134 nM. CN1CC[C@H](c2c(O)cc(O)c3c(=O)cc(-c4ccccc4Cl)oc23)[C@H](O)C1 showed an IC50 of 190 nM. CCCCCCCCCCCCCC[N+](C)(C)Cc1ccccc1 was tested, and the IC50 was > 20000 nM (inactive). COCc1c(C(C)C)nc(C(C)C)c(/C=C/[C@@H](O)C[C@@H](O)CC(=O)O)c1-c1ccc(F)cc1 was tested, and the IC50 was 6670 nM (inactive). CN(C)C(=S)SSC(=S)N(C)C was tested, and the IC50 was > 20000 nM (inactive). With CCCCCCNC(=O)n1cc(F)c(=O)[nH]c1=O the IC50 was 4980 nM. CCCCc1ccc2nc(NC(=O)OC)[nH]c2c1 was tested, and the IC50 was 33.6 nM. COC(=O)Nc1nc2ccc(C(=O)c3ccccc3)cc2[nH]1 gave an IC50 of 1740 nM. For COC(=O)[C@H]1[C@H]2C[C@@H]3c4[nH]c5cc(OC)ccc5c4CCN3C[C@H]2C[C@@H](OC(=O)/C=C/c2ccc(O)c(OC)c2)[C@@H]1OC, the IC50 was > 20000 nM (inactive). With COc1cc(C=C2CCC/C(=C\c3ccc(O)c(OC)c3)C2=O)ccc1O the IC50 was 5040 nM (inactive). In the case of COC(=O)Nc1nc2ccc(C(=O)c3cccs3)cc2[nH]1, the IC50 is reported as 235 nM. Cc1cc(=O)c2c(O)c3c(O)cc(=O)c4c3c3c(cc(O)c1c23)C(C)(C)C=4O was tested, and the IC50 was 1070 nM. O=C(CCl)c1ccc(Cl)cc1Cl showed an IC50 of 373 nM. With Cc1nc(Nc2ncc(C(=O)Nc3c(C)cccc3Cl)s2)cc(N2CCN(CCO)CC2)n1 the IC50 was 104 nM. For CN(C)c1ccc(C(=C2C=CC(=[N+](C)C)C=C2)c2ccccc2)cc1, the IC50 was > 20000 nM (inactive). With Cc1ccc2c(Br)cc(Br)c(O)c2n1 the IC50 was > 20000 nM (inactive). Work on COC(=O)c1nc(Cl)c(Cl)nc1N yielded an IC50 of 308 nM. Compound C=CC(=O)Nc1cc2c(Nc3ccc(F)c(Cl)c3)ncnc2cc1OCCCN1CCOCC1 has an IC50 of 1000 nM. Compound CN(Cc1cnc2nc(N)nc(N)c2n1)c1ccc(C(=O)N[C@@H](CCC(=O)O)C(=O)O)cc1 has an IC50 of 26.5 nM. For CCN(CC)CCNc1ccc(CO)c2sc3ccccc3c(=O)c12, the IC50 was > 20000 nM (inactive). For CCCCCCCCCCCCNCCNCCNCC(=O)O, the IC50 was > 20000 nM (inactive). Cc1cc2c(C(C)C)c(O)c(O)c(C=O)c2c(O)c1-c1c(C)cc2c(C(C)C)c(O)c(O)c(C=O)c2c1O was tested, and the IC50 was 3490 nM. With CC[C@]1(O)C[C@@H]2CN(CCc3c([nH]c4ccccc34)[C@@](C(=O)OC)(c3cc4c(cc3OC)N(C)[C@H]3[C@@](O)(C(=O)OC)[C@H](OC(C)=O)[C@]5(CC)C=CCN6CC[C@]43[C@@H]65)C2)C1 the IC50 was 3.5 nM and 5.8 nM. c1ccc2c(c1)Sc1ccccc1N2CC1CN2CCC1CC2 (centres undefined) was tested, and the IC50 was > 20000 nM (inactive). CCC1=C[C@@H]2CN(C1)Cc1c([nH]c3ccccc13)[C@@](C(=O)OC)(c1cc3c(cc1OC)N(C)[C@H]1[C@@](O)(C(=O)OC)[C@H](OC(C)=O)[C@]4(CC)C=CCN5CC[C@]31[C@@H]54)C2 gave an IC50 of 8.9 nM. With CC(C)(C)C(=O)OCOP(=O)(COCCn1cnc2c(N)ncnc21)OCOC(=O)C(C)(C)C the IC50 was 704 nM. O[C@@H](c1cc(C(F)(F)F)nc2c(C(F)(F)F)cccc12)[C@H]1CCCCN1 was tested, and the IC50 was > 20000 nM (inactive). For O=C1C2CC=CCC2C(=O)N1SC(Cl)(Cl)Cl (centres undefined), the IC50 was > 20000 nM (inactive). In the case of CSc1ccc2c(c1)C(N1CCN(C)CC1)Cc1ccccc1S2 (centres undefined), the IC50 is reported as > 20000 nM (inactive). With C[n+]1c2cc(N)ccc2cc2ccc(N)cc21 (tested in a mixture with another compound) the IC50 was > 20000 nM (inactive). COC(=O)Nc1nc2ccc(S(=O)c3ccccc3)cc2[nH]1 (centres undefined) showed an IC50 of 468 nM.
